Test [1] has as its system human venous whole blood (IFN-γ). Description: Human whole blood IFN-γ assay. Format: cell-based. On the procedure:
Human venous whole blood (22.5 μL per well), obtained from healthy donors, was pre-treated with compounds for one hour at 37° C. in a humidified 95% air/5% CO2 incubator. The blood was stimulated with 2.5 μL anti-human CD3 and anti-CD28 mAb at a final concentration of 1 μg/mL each for 24 hours at 37° C. IFN-γ in the supernatants was measured using AlphLISA kit (Cat #AL217).

A further test concerns the target human DGKα (Homo sapiens (Human), UniProt P23743). In words: DGKα ADPGLO assay (detergent/lipid micelle substrate). Format: biochemical. On the procedure:
DGK Alpha ADPGLO (Truncated) IC50 (uM)
The detergent/lipid micelle was prepared by combining 15 g phosphatidylserine (Avanti 840035P) and 1 g diacylglycerol (8008110) and dissolving into 150 mL chloroform in a 2 L round bottom flask. Chloroform was removed under high vacuum by rotary evaporation. […] The lipid/detergent solution was split into 5 mL aliquots and stored at −80° C.
In general terms: ADP-Glo first removes unused ATP, then detects ADP through luciferase.

For another test, the target named is human DGKζ (Homo sapiens (Human), UniProt Q13574). In words: DGKζ LIPGLO assay (extruded liposome substrate, ADP-Glo luminescence). Format: biochemical.
human DGKζ, sequence (Q13574 other isoform, or with tags, fused parts or gaps): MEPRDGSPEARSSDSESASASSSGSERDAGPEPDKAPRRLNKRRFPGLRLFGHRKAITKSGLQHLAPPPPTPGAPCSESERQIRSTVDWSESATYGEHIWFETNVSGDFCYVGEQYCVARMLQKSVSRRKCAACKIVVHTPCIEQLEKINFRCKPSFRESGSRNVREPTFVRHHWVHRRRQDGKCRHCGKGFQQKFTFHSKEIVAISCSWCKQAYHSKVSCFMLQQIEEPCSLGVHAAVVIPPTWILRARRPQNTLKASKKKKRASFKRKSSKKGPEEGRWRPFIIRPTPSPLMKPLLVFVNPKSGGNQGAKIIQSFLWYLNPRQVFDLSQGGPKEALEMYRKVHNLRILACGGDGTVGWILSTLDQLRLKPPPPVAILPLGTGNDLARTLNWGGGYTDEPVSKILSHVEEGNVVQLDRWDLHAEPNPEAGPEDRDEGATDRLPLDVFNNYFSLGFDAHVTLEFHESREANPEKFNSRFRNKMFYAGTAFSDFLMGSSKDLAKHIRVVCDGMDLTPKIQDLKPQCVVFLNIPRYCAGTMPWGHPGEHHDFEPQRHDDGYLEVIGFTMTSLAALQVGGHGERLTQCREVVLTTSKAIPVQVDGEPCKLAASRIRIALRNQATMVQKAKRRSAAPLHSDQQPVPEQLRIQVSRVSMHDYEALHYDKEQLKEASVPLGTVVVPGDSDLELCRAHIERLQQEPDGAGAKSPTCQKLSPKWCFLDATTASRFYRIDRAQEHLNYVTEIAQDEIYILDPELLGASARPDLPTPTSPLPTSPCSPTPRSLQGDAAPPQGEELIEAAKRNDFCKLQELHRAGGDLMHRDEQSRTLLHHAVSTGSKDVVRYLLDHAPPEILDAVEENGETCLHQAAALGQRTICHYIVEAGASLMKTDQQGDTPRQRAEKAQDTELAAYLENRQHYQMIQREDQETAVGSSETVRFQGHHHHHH
[2] abbreviates: whole blood, normalized to 3 μM reference compound as 100% activation, read-out: IFN-γ Whole Blood Normalized EC50.
Setting [3] is: truncated DGK alpha, read-out: DGK alpha ADPGLO (Truncated) IC50.
The mark [4] stands for this setting: liposome assay, read-out: DGK zeta LIPGLO IC50.
Setting [5] is: human whole blood, anti-CD3 plus anti-CD28 stimulation, 24 hours, read-out: IFN-γ Whole Blood EC50.
Where [6] appears, read: ADPGLO assay, read-out: DGK alpha ADPGLO IC50.
[7] abbreviates: liposome (LIPGLO) assay, read-out: DGK zeta (liposome assay) IC50.
[8] abbreviates: Homo sapiens, whole blood, normalized to 3 μM reference compound as 100% activation, read-out: IFN-γ Whole Blood Normalized EC50.

Read-outs that look alike come from different tables or passages of the source.

The values below come from patent US11584747B2, “Substituted pyridopyrimidinonyl compounds useful as T cell activators” (BRISTOL-MYERS SQUIBB COMPANY, priority 2019, dated 2023).

human DGKα, sequence (P23743 whole entry, looked up, the tested form may be a part): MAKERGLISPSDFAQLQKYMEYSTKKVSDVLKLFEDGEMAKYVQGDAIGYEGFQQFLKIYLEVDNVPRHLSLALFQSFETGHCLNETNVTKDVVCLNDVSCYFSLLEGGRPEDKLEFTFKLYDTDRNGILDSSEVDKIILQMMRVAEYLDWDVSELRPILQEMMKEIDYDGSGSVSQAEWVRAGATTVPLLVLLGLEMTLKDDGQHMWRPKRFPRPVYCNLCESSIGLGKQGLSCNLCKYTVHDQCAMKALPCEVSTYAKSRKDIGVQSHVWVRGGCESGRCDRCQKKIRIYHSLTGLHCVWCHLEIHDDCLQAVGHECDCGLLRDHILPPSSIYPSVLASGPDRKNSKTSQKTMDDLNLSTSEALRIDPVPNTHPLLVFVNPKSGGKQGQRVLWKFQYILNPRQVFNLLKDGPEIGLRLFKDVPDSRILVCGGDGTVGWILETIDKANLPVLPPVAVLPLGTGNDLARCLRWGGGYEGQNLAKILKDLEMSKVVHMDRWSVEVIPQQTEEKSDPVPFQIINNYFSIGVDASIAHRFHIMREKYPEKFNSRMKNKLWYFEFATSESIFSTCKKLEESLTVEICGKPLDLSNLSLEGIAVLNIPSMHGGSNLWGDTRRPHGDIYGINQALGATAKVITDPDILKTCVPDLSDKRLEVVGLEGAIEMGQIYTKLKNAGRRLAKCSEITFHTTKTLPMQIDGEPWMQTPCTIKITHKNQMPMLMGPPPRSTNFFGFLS

Usually EC50 stands for the concentration that produces a half-maximal response. Usually IC50 stands for the concentration that gives 50% inhibition. With `[2H]C([2H])([2H])Oc1ccc(C(C)N2C[C@H](CC)N(c3nc(=O)n(C)c4ccc(C#N)nc34)C[C@H]2CC)cc1` (single isomer, unassigned) [Example 191], the EC50 in test [1] (setting [2]) came out at 290 nM. Further, the IC50 on human DGKα (setting [3]) is 460 nM; at human DGKζ (setting [4]), 260 nM.
The corresponding values for `CC[C@H]1CN(C(C)c2ccc3oc(=O)n(C)c3c2)[C@H](CC)CN1c1nc(=O)n(C)c2ccc(C#N)nc12` (stereo partly drawn) [Example 202, 4-((2S,5R)-2,5-diethyl-4-(1-(3-methyl-2-oxo-2,3-dihydrobenzo[d]oxazol-5-yl)ethyl)piperazin-1-yl)-1-methyl-2-oxo-1,2-dihydropyrido[3,2-d]pyrimidine-6-carbonitrile] are 160 nM, 360 nM and 420 nM.
The corresponding values for `CC[C@@H]1CN(c2nc(=O)n(C)c3ccc(C#N)nc23)[C@@H](C)CN1C(c1ccc(F)cc1)c1csc(C(F)(F)F)n1` (stereo partly drawn) [Example 297, 4-((2S,5R)-5-ethyl-4-((4-fluorophenyl)(2-(trifluoromethyl)thiazol-4-yl)methyl)-2-methylpiperazin-1-yl)-1-methyl-2-oxo-1,2-dihydropyrido[3,2-d]pyrimidine-6-carbonitrile] are 53 nM, 110 nM and 110 nM.
For `[2H]C([2H])([2H])Oc1ccc(C(CC)N2C[C@H](CC)N(c3nc(=O)n(C)c4ccc(C#N)nc34)C[C@H]2CC)cc1` (single isomer, unassigned) [Example 209], in test [1] (setting [2]), the half-maximal effective concentration (EC50) worked out at 1280 nM. The figures for the IC50 on human DGKα (setting [3]) and on human DGKζ (setting [4]) were 91 nM and 1030 nM, respectively.
The corresponding values for `CC[C@H]1CN(C(C)c2cnc(C(F)(F)F)nc2)[C@H](CC)CN1c1nc(=O)n(C)c2ccc(C#N)nc12` (stereo partly drawn) [Example 226, 4-((2S,5R)-2,5-diethyl-4-(1-(2-(trifluoromethyl)pyrimidin-5-yl)ethyl)piperazin-1-yl)-1-methyl-2-oxo-1,2-dihydropyrido[3,2-d]pyrimidine-6-carbonitrile] are 5600 nM, 1210 nM and 2650 nM.
The like results for `CC[C@@H]1CN(c2nc(=O)n(C)c3ccc(C#N)nc23)[C@@H](C)CN1C(C)c1ccc2oc(=O)n(C)c2c1` (stereo partly drawn) [Example 298, 4-((2S,5R)-5-ethyl-2-methyl-4-(1-(3-methyl-2-oxo-2,3-dihydrobenzo[d]oxazol-5-yl)ethyl)piperazin-1-yl)-1-methyl-2-oxo-1,2-dihydropyrido[3,2-d]pyrimidine-6-carbonitrile] were, in that order, 420 nM, 480 nM and 380 nM.
Consider `CCC(c1ccc(C(F)(F)F)cc1)N1C[C@H](CC)N(c2nc(=O)n(C)c3ccc(OC)nc23)C[C@H]1CC` (stereo partly drawn) [Example 436, 4-((2S,5R)-2,5-diethyl-4-(1-(4-(trifluoromethyl)phenyl)propyl)piperazin-1-yl)-6-methoxy-1-methylpyrido[3,2-d]pyrimidin-2(1H)-one], for which the concentration for a half-maximal effect (EC50) in test [1] (setting [5]) turned out to be 20000 nM. For the same molecule, the concentration for half-maximal inhibition (IC50) on human DGKα (setting [6]) amounted to 12200 nM; at human DGKζ (setting [7]), 250000 nM.
Regarding `CCC(c1ccc(C#N)cc1)N1C[C@H](CC)N(c2nc(=O)n(C)c3ccc(C#N)nc23)C[C@H]1CC` (stereo partly drawn) [Example 221, 4-((2S,5R)-4-(1-(4-cyanophenyl)propyl)-2,5-diethylpiperazin-1-yl)-1-methyl-2-oxo-1,2-dihydropyrido[3,2-d] pyrimidine-6-carbonitrile], the concentration giving a half-maximal response (EC50) in test [1] (setting [2]) came out at 480 nM. The half-inhibitory concentration (IC50) at human DGKα (setting [3]) came to 2 nM; at human DGKζ (setting [4]), 250 nM.
The corresponding values for `CC[C@H]1CN(C(C)c2ccc(N3CCCC3=O)cc2)[C@H](CC)CN1c1nc(=O)n(C)c2ccc(C#N)nc12` (stereo partly drawn) [Example 230, 4-((2S,5R)-2,5-diethyl-4-(1-(4-(2-oxopyrrolidin-1-yl)phenyl)ethyl)piperazin-1-yl)-1-methyl-2-oxo-1,2-dihydropyrido[3,2-d]pyrimidine-6-carbonitrile] are 1290 nM, 42 nM and 130 nM.
With `CCC(c1ccc(OCC2CC2)cc1)N1C[C@H](CC)N(c2nc(=O)n(C)c3ccc(C#N)nc23)C[C@H]1CC` (stereo partly drawn) [Example 217, 4-((2S,5R)-4-(1-(4-(cyclopropylmethoxy)phenyl)propyl)-2,5-diethylpiperazin-1-yl)-1-methyl-2-oxo-1,2-dihydropyrido[3,2-d]pyrimidine-6-carbonitrile], the EC50 in test [1] (setting [2]) is 870 nM. Further, the IC50 came out at 1660 nM on human DGKα (setting [3]) and 4260 nM at human DGKζ (setting [4]).
The corresponding values for `CC[C@H]1CN(C(C)c2ccc(C(=O)OC)cc2)[C@H](CC)CN1c1nc(=O)n(C)c2ccc(C#N)nc12` (stereo partly drawn) [Example 266, methyl 4-(1-((2R,5S)-4-(6-cyano-1-methyl-2-oxo-1,2-dihydropyrido[3,2-d]pyrimidin-4-yl)-2,5-diethylpiperazin-1-yl)ethyl)benzoate] are 180 nM, 83 nM and 28 nM.
On to `CC[C@@H]1CN(c2nc(=O)n(C)c3ccc(C#N)nc23)[C@@H](C)CN1C(c1ccc(F)cc1)c1csc(C(F)(F)F)n1` (stereo partly drawn) [Example 296, 4-((2S,5R)-5-ethyl-4-((4-fluorophenyl)(2-(trifluoromethyl)thiazol-4-yl)methyl)-2-methylpiperazin-1-yl)-1-methyl-2-oxo-1,2-dihydropyrido[3,2-d]pyrimidine-6-carbonitrile], for which the EC50 in test [1] (setting [8]) was 36 nM. Further, the 50% inhibitory concentration (IC50) amounted to 460 nM at human DGKα (setting [3]) and 140 nM on human DGKζ (setting [4]).
For the molecule `CCC(c1ccc(OC)cc1)N1C[C@H](CC)N(c2nc(=O)n(C)c3ccc(C#N)nc23)C[C@H]1CC` (stereo partly drawn) [Example 213, 4-((2S,5R)-2,5-diethyl-4-(1-(4-methoxyphenyl)propyl)piperazin-1-yl)-1-methyl-2-oxo-1,2-dihydropyrido[3,2-d]pyrimidine-6-carbonitrile], in test [1] (setting [2]), the EC50 came out at 190 nM. For the same molecule, the half-maximal inhibitory concentration (IC50) at human DGKα (setting [3]) was determined as 59 nM; on human DGKζ (setting [4]), 950 nM.
The corresponding values for `CC[C@H]1CN(C(C)c2ccc(CN3CCOC(C)(C)C3)cc2)[C@H](CC)CN1c1nc(=O)n(C)c2ccc(C#N)nc12` (stereo partly drawn) [Example 276, 4-((2S,5R)-4-(1-(4-((2,2-dimethylmorpholino)methyl)phenyl)ethyl)-2,5-diethylpiperazin-1-yl)-1-methyl-2-oxo-1,2-dihydropyrido[3,2-d]pyrimidine-6-carbonitrile] are 3560 nM, 120 nM and 1380 nM.
With `CC[C@H]1CN(C(C)c2ccc(C(F)(F)F)cc2)[C@H](CC)CN1c1nc(=O)n(C)c2ccc(OCCOC)nc12` (stereo partly drawn) [Example 433, 4-((2S,5R)-2,5-diethyl-4-(1-(4-(trifluoromethyl)phenyl)ethyl)piperazin-1-yl)-6-(2-methoxyethoxy)-1-methylpyrido[3,2-d]pyrimidin-2(1H)-one], the EC50 in test [1] (Homo sapiens, 24 h, human whole blood, anti-CD3 plus anti-CD28 stimulation, 24 hours, read-out: IFN-γ Whole Blood EC50) turned out to be 20000 nM. In addition, the concentration for half-maximal inhibition (IC50) on human DGKα (setting [6]) and at human DGKζ (setting [7]) was 125000 nM throughout.
In the case of `CC(c1ccc(CN2C[C@@H]3C[C@H]2CO3)cc1)N1C[C@H](C)N(c2nc(=O)n(C)c3ccc(C#N)nc23)C[C@H]1C` (stereo partly drawn) [Example 387, 4-((2S,5R)-4-(1-(4-(((1S,4S)-2-oxa-5-azabicyclo[2.2.1]heptan-5-yl)methyl)phenyl)ethyl)-2,5-dimethylpiperazin-1-yl)-1-methyl-2-oxo-1,2-dihydropyrido[3,2-d]pyrimidine-6-carbonitrile], the 50% effective concentration (EC50) in test [1] (setting [5]) was found to be 770 nM. Also, the IC50 at human DGKα (setting [6]) was 1930 nM; on human DGKζ (setting [7]), 6070 nM.
As to `CC[C@H]1CN(C(C)c2ccc(CN3CCC(F)(F)CC3)cc2)[C@H](CC)CN1c1nc(=O)n(C)c2ccc(C#N)nc12` (stereo partly drawn) [Example 278, 4-((2S,5R)-4-(1-(4-((4,4-difluoropiperidin-1-yl)methyl)phenyl)ethyl)-2,5-diethylpiperazin-1-yl)-1-methyl-2-oxo-1,2-dihydropyrido[3,2-d]pyrimidine-6-carbonitrile], in test [1] (setting [8]), the EC50 came out at 1150 nM. Moreover, the IC50 on human DGKα (setting [3]) was determined as 2860 nM.
Take `CCCC(c1ccc(C(F)(F)F)cc1)N1C[C@H](CC)N(c2nc(=O)n(C)c3ccc(C#N)nc23)C[C@H]1CC` (stereo partly drawn) [Example 243, 4-((2S,5R)-2,5-Diethyl-4-(1-(4-(trifluoromethyl)phenyl)butyl)piperazin-1-yl)-1-methyl-2-oxo-1,2-dihydropyrido[3,2-d]pyrimidine-6-carbonitrile]: the 50% effective concentration (EC50) in test [1] (setting [2]) is 59 nM. Further, the IC50 on human DGKα (setting [3]) is 6 nM.
As to `CCOc1ccc(C(CC)N2C[C@H](C)N(c3nc(=O)n(C)c4ccc(C#N)nc34)C[C@H]2CC)cc1` (stereo partly drawn) [Example 307, 4-((2S,5R)-4-(1-(4-ethoxyphenyl)propyl)-5-ethyl-2-methylpiperazin-1-yl)-1-methyl-2-oxo-1,2-dihydropyrido[3,2-d]pyrimidine-6-carbonitrile], the IC50 on human DGKα (setting [6]) amounted to 140 nM; at human DGKζ (setting [7]), 770 nM.
The corresponding values for `CCC(C1CCC(F)(F)CC1)N1C[C@H](C)N(c2nc(=O)n(C)c3ccc(C#N)nc23)C[C@H]1C` (stereo partly drawn) [Example 460, 4-((2S,5R)-4-(1-(4,4-difluorocyclohexyl)propyl)-2,5-dimethylpiperazin-1-yl)-1-methyl-2-oxo-1,2-dihydropyrido[3,2-d]pyrimidine-6-carbonitrile] are 11600 nM and 12000 nM.
